Data set [1] relates to Staphylococcus aureus. In words: Antibacterial activity against methicillin-resistant Staphylococcus aureus ATCC43300 assessed as bacterial growth inhibition incubated for 18 to 24 hrs by microbroth dilution method. The format is functional. The settings on record: time 18-24 hrs. (In general: Broth dilution looks for growth in wells or tubes with falling amounts of substance.)

The test system of data set [2] is Bacillus subtilis. In words: Antibacterial activity against Bacillus subtilis BNCC336690 assessed as increase in cell length at 0.5 times MIC incubated for 4 hrs by microscopic analysis. It counts as functional, organism-based.
Data set [3] concerns Bacillus subtilis. In words: Antibacterial activity against Bacillus subtilis BNCC336690 assessed as bacterial growth inhibition incubated for 18 to 24 hrs by microbroth dilution method. It counts as functional. The note with it: time 18-24 hrs.
The target in data set [4] is T1, Cell division protein FtsZ (Escherichia coli K-12) (UniProt P0A9A6).
T1 sequence (whole entry): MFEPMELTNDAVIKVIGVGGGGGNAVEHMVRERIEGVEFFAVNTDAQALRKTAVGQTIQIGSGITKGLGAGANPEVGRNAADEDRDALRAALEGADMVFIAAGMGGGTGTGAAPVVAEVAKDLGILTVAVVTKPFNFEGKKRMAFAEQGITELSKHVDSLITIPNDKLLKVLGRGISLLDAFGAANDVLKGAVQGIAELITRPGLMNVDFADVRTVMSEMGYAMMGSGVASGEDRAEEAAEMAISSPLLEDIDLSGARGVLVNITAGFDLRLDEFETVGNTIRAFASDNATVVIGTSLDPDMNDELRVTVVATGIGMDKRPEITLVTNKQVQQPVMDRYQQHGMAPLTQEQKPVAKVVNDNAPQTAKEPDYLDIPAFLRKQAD
In words: Inhibition of recombinant Escherichia coli FtsZ expressed in Escherichia coli BL21 assessed as bundling of FtsZ filaments at 4 ug/ml incubated for 10 mins by TEM analysis. The note with it: dose 4.0 µg/ml.

For data set [5], the system named is Staphylococcus aureus. In words: Antibacterial activity against methicillin-resistant Staphylococcus aureus ATCC43300 assessed as filamentation on cell surface at 4 times MIC incubated for 2 hrs by SEM analysis. The format is functional, organism-based.
The test system of data set [6] is Staphylococcus aureus. Description: Antibacterial activity against drug-resistant Staphylococcus aureus ATCC43300 assessed as inhibition of resistance development at 0.5 times MIC after 25 passages incubated for 18 to 24 hrs by microbroth dilution method. The format is functional, organism-based. The settings on record: time 18-24 hrs.
Data set [7] concerns Staphylococcus aureus. Description: Inhibition of biofilm formation in methicillin-resistant Staphylococcus aureus ATCC43300 at 0.049 ug/ml incubated for 24 hrs by crystal violet staining based assay relative to control. The format is functional.
For data set [8], the system named is Staphylococcus aureus. Description: Antibacterial activity against methicillin-resistant Staphylococcus aureus ATCC43300 assessed as wrinkling cell surface at 4 times MIC incubated for 2 hrs by SEM analysis. It counts as functional, organism-based.
The target of data set [9] is T1, Cell division protein FtsZ (Escherichia coli K-12). In words: Inhibition of recombinant Escherichia coli FtsZ expressed in Escherichia coli BL21 assessed as reduction in GTPase activity incubated for 30 mins by malachite green phosphate staining based assay. The settings on record: dose 0.02-0.64 µg/ml.
Data set [10] is described as follows: Hemolytic activity in human erythrocytes assessed as release of hemoglobin level at 12.5 ug/ml incubated for 1 hr by absorbance based assay relative to control. It counts as toxicity, cell-based, Erythrocyte. The settings on record: at 12.5 µg/mL, read-out: Activity.
The test system of data set [11] is Staphylococcus aureus. In words: Inhibition of biofilm formation in methicillin-resistant Staphylococcus aureus ATCC43300 incubated for 24 hrs by crystal violet staining based assay. It counts as functional, organism-based. The note with it: dose 0.012-12.5 µg/ml.
Data set [12] in a line: Cytotoxicity against mouse RAW264.7 cells assessed as cell survival at 12.5 ug/ml incubated for 24 hrs by CCK8 assay relative to control. The format is toxicity, cell-based. The note with it: at 12.5 µg/mL, read-out: Activity. On the technique in general: Tetrazolium dyes change colour on reduction, which living cells bring about.
Data set [13] deals with Staphylococcus aureus. In words: Inhibition of biofilm formation in methicillin-resistant Staphylococcus aureus ATCC43300 at 0.024 ug/ml incubated for 24 hrs by crystal violet staining based assay relative to control. The format is functional.
The next data set has as its system Streptococcus pneumoniae. In words: Antibacterial activity against Streptococcus pneumoniae ATCC49619 assessed as bacterial growth inhibition incubated for 18 to 24 hrs by microbroth dilution method. It counts as functional. The settings on record: time 18-24 hrs.
Data set [14] can be described thus: Cytotoxicity against mouse RAW264.7 cells assessed as cell survival at 50 ug/ml incubated for 24 hrs by CCK8 assay relative to control. It counts as toxicity, cell-based. The note with it: at 50 µg/mL, read-out: Activity.
Data set [15] in a line: Cytotoxicity against mouse RAW264.7 cells assessed as cell survival at 25 ug/ml incubated for 24 hrs by CCK8 assay relative to control. The settings on record: at 25 µg/mL, read-out: Activity. It counts as toxicity, cell-based.
The subject of another data set is Escherichia coli. In words: Antibacterial activity against penicillin-susceptible Escherichia coli ATCC25922 assessed as bacterial growth inhibition incubated for 18 to 24 hrs by microbroth dilution method. The format is functional. The note with it: time 18-24 hrs.
The test system of data set [16] is Staphylococcus aureus. Description: Inhibition of biofilm formation in methicillin-resistant Staphylococcus aureus ATCC43300 at 0.012 ug/ml incubated for 24 hrs by crystal violet staining based assay relative to control. It counts as functional.
Data set [17] relates to Staphylococcus aureus. Description: Antibacterial activity against methicillin-resistant Staphylococcus aureus ATCC43300 assessed as log10 CFU reduction at 1 to 4 times MIC measured for 1 hr by time-killing assay. The format is functional.
For data set [18], the target named is T1, Cell division protein FtsZ (Escherichia coli K-12). Description: Inhibition of recombinant Escherichia coli FtsZ expressed in Escherichia coli BL21 assessed as induction of FtsZ polymerization incubated for 10 mins by light scattering assay. The settings on record: dose 1-4 µg/ml.
Data set [19] shares this target. In words: Inhibition of recombinant Escherichia coli FtsZ expressed in Escherichia coli BL21 assessed as induction of FtsZ polymerization at 4 ug/ml incubated for 10 mins by light scattering assay. The note with it: dose 4.0 µg/ml.

Molecules are shown by their SMILES. Active and inactive are the calls of the source. No cut-off for these calls is given here.

One may read the MIC as the lowest concentration found to suppress growth. Broadly, the inhibition is the drop in the measured response relative to a control, in per cent.

With `CCCCCCCCNC(=O)c1ccc2[nH]c3c4[n+](ccc3c2c1)-c1ccccc1C4=O.[Br-]`, the MIC in the data set with Staphylococcus aureus [1] is 0.098 µg/mL; with Bacillus subtilis [3], 0.098 µg/mL; with Streptococcus pneumoniae, 0.39 µg/mL; in the data set on Escherichia coli, greater than 200 µg/mL. For the same compound, the outcome with Bacillus subtilis [2], in the data set on Staphylococcus aureus [5] and in the data set on Staphylococcus aureus [8] was Active. Besides, the inhibition result in data set [4] and in data set [19] was “Active” each time. The inhibition result in the data set on Staphylococcus aureus [6] is “inactive”. Besides, the inhibition at 0.049 µg/mL in the data set on Staphylococcus aureus [7] stood at 82.6%. For the same compound, the inhibition entry (in data set [9]; in the data set with Staphylococcus aureus [11]; in data set [18]) was “Dose-Dependent Effect” each time. The hemolysis at 1 h, 12.5 ug/ml in data set [10] worked out at 0%. Moreover, the viability at 24 h, 12.5 ug/ml in data set [12] was 103%. In the data set with Staphylococcus aureus [13], this compound gave an inhibition at 0.024 µg/mL of roughly 42.7%. The viability at 24 h, 50 ug/ml in [14] stood at 73.3%. Also, in [15], the viability at 24 h, 25 ug/ml was found to be 84.1%. The same compound showed an inhibition at 0.012 µg/mL with Staphylococcus aureus [16] of roughly 11.9%. In the data set with Staphylococcus aureus [17], the Activity is listed as 2 log10CFU/ml.

The values above are taken from ChEMBL document CHEMBL5325422, “Design and synthesis of fascaplysin derivatives as inhibitors of FtsZ with potent antibacterial activity and mechanistic study” (Eur J Med Chem, 2023).
